# How the values were obtained:
# [1] = In vivo distribution in PC-3 xenografted tumor mouse model; conditions: male, Balb/c nude, tumor (PC-3 xenograft), total radioactivity, prostate cancer cells (tumor), 1 hour after intravenous injection, 370 KBq, read-out: tumor uptake, percentage of the injected dose per unit weight
# Description: In order to evaluate in vivo targeting efficiency of 177Lu-DOTA-gluBBN, in vivo distribution of 177Lu-DOTA-gluBBN in a tumor mouse model obtained by xenografting PC-3 cells, which are human prostate cancer cells, into a Balb/c nude mouse (Nara biotech, Korea) was evaluated. The tumor-bearing mouse model was prepared by subcutaneously injecting the PC-3 cells (1×10^7) into a right upper end of the shoulder of a male Balb/c nude mouse (7 weeks old) and allowing tumor to grow for 3 weeks. 177Lu-DOTA-gluBBN (370 KBq) was intravenously injected into a tail vein of the tumor mouse model. After […] of injection, the experimental animal was euthanized. Then, after the blood, the liver, the kidney, the spleen, the heart, the large intestine, the small intestine, the lung, the stomach, the pancreas, and the like, in addition to the tumor were extracted, weights of the organs were measured, and radioactivity of each organ was measured. 177Lu-DOTA-gluBBN uptake in each organ was expressed as percentage of the injected dose per unit weight (% ID/g). It was confirmed that 177Lu-DOTA-gluBBN targeted prostate cancer cells at 1 hour after intravenous injection with high efficiency (12.42±2.15% ID/g).
# [2] = In vivo physiological toxicity (body weight); parameters: species or system mouse; conditions: therapeutic dose, early stage of administration, measured twice a week
# Description: (§1) In order to confirm a toxicological effect by therapeutic dose, a body weight and histological states of organs were evaluated. The body weight was measured twice a week, and after euthanizing the animal model at the timing at which evaluation was terminated, spleen and kidney tissue was collected and H&E stained.
# [3] = target: T1, GRP-R (Homo sapiens, UniProt P30550); assay: Binding of 177Lu-DOTA-gluBBN in PC-3 cells (dissociation constant); conditions: 0.01 to 100 nM, 37° C., 2 hours
# T1 construct: PC-3 cells were used as a human prostate cancer cell line; host or cells: PC-3 human prostate cancer cells
# Description: (§2) In order to confirm in vitro targeting efficiency of DOTA-gluBBN and 177Lu-DOTA-gluBBN prepared according to Examples 1 and 2 to prostate cancer cells, PC-3 cells were used as a human prostate cancer cell line. The PC-3 cells corresponding to the human prostate cancer cell line were purchased from Korean cell line bank. The PC-3 cells were cultured in a Roswell Park Memorial Institute (RPMI) 1640 medium containing 10% fetal bovine serum (FBS) at 37° C. in 5% CO2 atmosphere.
# (§3) The cells were cultured in a disposable flask for cell culture, and at the time of an experiment, the cells were cultured in a 96-well or 12-well cell culture plate according to an experimental method and then used.
# In addition, 177Lu-DOTA-gluBBN (0.01 to 100 nM) prepared according to Example 2 was reacted, respectively, in the PC-3 cells. After culturing a cell plate at 37° C. for 2 hours, a reaction solution was recovered. After the cells were washed with PBS and recovered by 1N NaOH, radioactivity of each solution was measured using a gamma counter.
# [4] = system: prostate cancer; assay: Comparison of in vivo targeting efficiency to prostate cancer with comparative material 177Lu-AMBA; conditions: versus comparative material 177Lu-AMBA
# Excerpt: As a material having prostate cancer targeting mechanism similar to that of the bombesin derivatives (177Lu-DOTA-gluBBN) using the bombesin derivatives, which is the GRP-R agonist, prepared according to Example 2, 177Lu-AMBA (comparative material (J. Nucl. Med. 47(7):1144-1152 (Non-Patient Document)), see compound in FIG. 1) is a prostate cancer targeting diagnosis and treatment material of which excellent targeting efficiency is recognized, such that currently a phase 1 clinical trial was terminated.
# [5] = In vivo histological toxicity (spleen and kidney, H&E); parameters: species or system Balb/c nude mouse; conditions: therapeutic dose, H&E stained, versus normal and control group
# Description: as §1
# [6] = target: T1, GRP-R; assay: Competitive binding with 125I-[Tyr4]-bombesin in PC-3 cells; conditions: competition with 125I-[Tyr4]-bombesin (20,000 CPM), 37° C., 1 hour
# Description: as §2, §3
# DOTA-gluBBN (10^−6 to 10^−12M) prepared according to Example 1 was co-cultured with 125I-[Tyr^4]-bombesin (20,000 CPM), respectively, in the PC-3 cells, which are human prostate cancer cells, to thereby carry out a competitive reaction. After culturing a cell plate at 37° C. for 1 hour, a reaction solution was recovered. After the cells were washed with PBS and recovered by 1N NaOH, radioactivity of each solution was measured using a gamma counter.
# T1 sequence (P30550 whole entry): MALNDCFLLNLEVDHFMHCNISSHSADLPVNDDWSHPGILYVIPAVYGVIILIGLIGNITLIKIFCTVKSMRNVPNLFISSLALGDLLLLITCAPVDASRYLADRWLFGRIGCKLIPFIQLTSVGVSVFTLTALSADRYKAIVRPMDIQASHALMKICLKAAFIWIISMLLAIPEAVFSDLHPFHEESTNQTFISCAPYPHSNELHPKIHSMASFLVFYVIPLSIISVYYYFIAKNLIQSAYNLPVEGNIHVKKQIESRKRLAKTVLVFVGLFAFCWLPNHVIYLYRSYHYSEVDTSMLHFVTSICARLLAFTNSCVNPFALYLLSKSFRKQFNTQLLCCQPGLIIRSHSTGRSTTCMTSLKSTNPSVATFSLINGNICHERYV
smiles,measurement,setting,value
"CSCC[C@H](NC(=O)[C@H](CC(C)C)NC(=O)[C@H](Cc1c[nH]cn1)NC(=O)CNC(=O)[C@@H](NC(=O)[C@H](C)NC(=O)[C@H](Cc1c[nH]c2ccccc12)NC(=O)[C@H](CCC(N)=O)NC(=O)c1ccc(NC(=O)[C@H](CCCCNC(=O)CO[C@@H]2[C@@H](O)[C@@H](O)O[C@H](CO)[C@H]2O)NC(=O)CN2CCN(CC(=O)O)CCN(CC(=O)O)CCN(CC(=O)O)CC2)cc1)C(C)C)C(N)=O [177Lu-DOTA-gluBBN, metal not drawn]",tissue uptake at 1 h,[1],12.4 ± 2.15 %ID/g
same,body weight change,[2],there was not a great change in the body weight
same,Kd,[3],~0.63 nM
same,removal in the blood versus 177Lu-AMBA,[4],more rapidly removed in the blood
same,histological toxicity in spleen and kidney,[5],not observed
CSCC[C@H](NC(=O)[C@H](CC(C)C)NC(=O)[C@H](Cc1c[nH]cn1)NC(=O)CNC(=O)[C@@H](NC(=O)[C@H](C)NC(=O)[C@H](Cc1c[nH]c2ccccc12)NC(=O)[C@H](CCC(N)=O)NC(=O)c1ccc(NC(=O)[C@H](CCCCNC(=O)CO[C@@H]2[C@@H](O)[C@@H](O)O[C@H](CO)[C@H]2O)NC(=O)CN2CCN(CC(=O)O)CCN(CC(=O)O)CCN(CC(=O)O)CC2)cc1)C(C)C)C(N)=O [DOTA-gluBBN],IC50,[6],4.67 nM

# Source: patent US9827338B2, “GRP-R agonistic 177-lutetium-labeled bombesin derivatives for diagnosis and treatment of prostate cancer” (KOREA ATOMIC ENERGY RESEARCH INSTITUTE, priority 2014, dated 2017)
